Assay results: patent US20260009799A1, “CA-IX TARGETING FLUORESCENT PROBES” (BRACCO IMAGING S.P.A., priority 2022, published 2026)

Assays:
target receptor CA-IX = target: T1, target receptor CA-IX (Homo sapiens, UniProt Q16790); assay: Cell uptake competition with 100x excess acetazolamide; type: cell-based; settings: for % uptake in presence of 100x excess acetazolamide: 1 μM, 2 hours at 37° C., residual cellular uptake; for share of cell-associated fluorescence due to non-specific cellular uptake: flow cytometry
T1 construct: endogenous in cells
Procedure: The receptor-mediated uptake, i.e. whether the uptake of the probes was mediated by binding to the target receptor CA-IX, was analyzed by performing competition experiments.

CA-IX on HT-29 cells = target: T2, CA-IX on HT-29 cells (Homo sapiens, UniProt Q16790); assay: Cellular specificity: binding to HT-29 cells in competition with MSC8 antibody; type: cell-based; settings: compound 1 0.125 μM, MSC8 0.0125/0.125/1.25/2.5 μM, on ice
T2 construct: CA-IX, expressed in its physiological environment at the cell-surface; host or cells: HT-29 human colorectal adenocarcinoma cells
Procedure: HT-29 cells were co-incubated, on ice in suspension, with compound 1, at the established concentration of 0.125 μM, and different concentrations of MSC8 (0.1×, 1×, 10× and 20× with respect to compound 1, i.e. 0.0125/0.125/1.25/2.5 μM); in addition, HT-29 cells were incubated with either compound 1 alone, or each concentration of MSC8 alone as well. The resulting binding of both compound 1 and MSC8 was then recorded as cell-associated fluorescence intensity, using for MSC8 a secondary antibody labelled with Alexa Fluor™ 488 (ThermoFischer), and compared to the one resulting from both compounds alone, taken as 100%.

[1] = test system: HT-29 excised tumors and tissues; assay: Ex vivo biodistribution in excised tumors and organs; set-up: species or system mice; settings: for ex vivo TBR, times higher than respective References 2 and 3: 1 nmol/mouse, 24 hours; for Organ-to-muscle ratio, intestine (mean ± SD) / Organ-to-muscle ratio, kidney (mean ± SD) / Organ-to-muscle ratio, liver (mean ± SD) / Organ-to-muscle ratio, skin (mean ± SD) / Organ-to-muscle ratio, spleen (mean ± SD) / Organ-to-muscle ratio, stomach (mean ± SD): ex vivo, 24 hours after administration; for Organ-to-muscle ratio, intestine (mean ± SD) / Organ-to-muscle ratio, kidney (mean ± SD) / Organ-to-muscle ratio, liver (mean ± SD) / Organ-to-muscle ratio, skin (mean ± SD) / Organ-to-muscle ratio, spleen (mean ± SD) / Organ-to-muscle ratio, stomach (mean ± SD) / ex vivo TBR (mean ± SD), HT-29 tumor: 1 nmol; for ex vivo TBR (mean ± SD), HT-29 tumor: samples collected 24 hours after administration, tumor vs hind limb muscle
Procedure: The ex vivo biodistribution of the representative compounds 1 and 2 and of the reference compounds (at 1 nmol/mouse) was evaluated in HT-29 excised tumors and tissues at the end of the in vivo OI sessions 24 hours post intravenous administration. At the end of the in vivo experiment, animals were euthanized by overdose of gaseous anesthesia followed by cervical dislocation. Tumor tissue, muscle, and other organs of interest were removed for ex vivo fluorescent signal measurements. The fluorescence signal intensity was measured by the IVIS Spectrum system. Regions of interest (ROIs) were drawn around each organ and tumor using the Living Image Software (PerkinElmer) and evaluating signal intensity in the tissues (expressed as Average Radiant Efficiency). The ratio between the fluorescence signal in the organs and tumor was then calculated to assess the contrast to hind limb muscle (representing the background).

[2] = Optical characterization (excitation/emission maxima, molar extinction coefficient); type: physicochemical; settings: for Max Em (nm, PBS pH 7.4) / Max Em (nm, Seronorm): emission maximum; for Max Em (nm, Seronorm) / Max Ex (nm, Seronorm): Seronorm control serum; for Max Ex (nm, PBS pH 7.4) / Max Ex (nm, Seronorm): excitation maximum
Procedure: A dual-beam UV-VIS spectrophotometer (Lambda 40, Perkin Elmer) was used to determine the absorbance (Abs) of the compounds of the invention. Emission/excitation (Em/Ex) spectra were carried out on a spectrofluorometer (FluoroLog-3 1IHR-320, Horiba Jobin Yvon) equipped with an F-3018 integrating sphere accessory. The measurements were performed using an excitation wavelength at maximum absorbance of different dyes, and the sample was excited with a 450 W Xenon light Source. Detection was performed by photomultiplier tubes (PMT-NIR) cooled detector or by TBX-04 detector. Dye solutions were carefully prepared to have an absorbance lower than 0.1 (optical densities) to minimize re-absorption phenomena.
The compounds of the invention were characterized in terms of their optical properties in vitro in aqueous medium (i.e., water/PBS pH 7.4) and in a clinical chemistry control serum (Seronorm, Sero SA), mimicking the chemical composition and optical properties of human serum. All solutions were freshly prepared. In particular, the compounds of the invention are characterized by absorption maxima comprised in the range from about 750 nm to 780 nm.
The excitation and emission maxima in PBS and Seronorm and the molar extinction coefficient (ε) in water of representative compounds of formula (I) are shown in Table I in comparison with the known CA-IX targeting fluorescent probe named Hypoxyfluor-1 (HF-1, for instance disclosed in Bioconjugate Chem 2018, 29, 3320-3331). […] Moreover, the extinction coefficients were higher than 200,000 mM^−1 cm^−1 for all compounds.

SMILES | % uptake in presence of 100x excess acetazolamide (target receptor CA-IX) | share of cell-associated fluorescence due to non-specific cellular uptake (target receptor CA-IX) | binding of compound 1 to HT-29 cells in presence of MSC8 (CA-IX on HT-29 cells) | ex vivo TBR, times higher than respective References 2 and 3 [1] | Organ-to-muscle ratio, intestine (mean ± SD) [1] | Organ-to-muscle ratio, kidney (mean ± SD) [1] | Organ-to-muscle ratio, liver (mean ± SD) [1] | Organ-to-muscle ratio, skin (mean ± SD) [1] | Organ-to-muscle ratio, spleen (mean ± SD) [1] | Organ-to-muscle ratio, stomach (mean ± SD) [1] | ex vivo TBR (mean ± SD), HT-29 tumor [1] | Max Em (nm, PBS pH 7.4) [2] | Max Em (nm, Seronorm) [2] | Max Ex (nm, PBS pH 7.4) [2] | Max Ex (nm, Seronorm) [2]
CC1(C)C(/C=C/C2=C(Oc3ccc(S(=O)(=O)O)cc3)C(=C/C=C3/N(CCCCCC(=O)NCCCCCCCC(=O)Nc4nnc(S(N)(=O)=O)s4)c4ccc(C(=O)NC[C@H](O)[C@@H](O)[C@H](O)[C@H](O)CO)cc4C3(C)C)/CCC2)=[N+](CCCCS(=O)(=O)[O-])c2ccc(C(=O)NC[C@H](O)[C@@H](O)[C@H](O)[C@H](O)CO)cc21 [Compound 1] | 6.5 ± 2.2% | about 10% | reduced in a dose-dependent manner | about 1.5 times | 1.8 ± 0.4 | 6.0 ± 1.1 | 4.2 ± 0.7 | 1.2 ± 0.1 | 0.9 ± 0.2 | 5.4 ± 0.8 | 13.4 ± 2.2 | 806 nm | 812 nm | 782 nm | 792 nm
CC(CC[N+]1=C(/C=C/C=C/C=C/C=C2/N(CCCCCC(=O)NCCCCCCCC(=O)Nc3nnc(S(N)(=O)=O)s3)c3ccc(C(=O)NC[C@H](O)[C@@H](O)[C@H](O)[C@H](O)CO)cc3C2(C)C)C(C)(C)c2cc(C(=O)NC[C@H](O)[C@@H](O)[C@H](O)[C@H](O)CO)ccc21)S(=O)(=O)[O-] (some centres unmarked) [Compound 2] | 11.3 ± 1.7% | about 10% | – | about 1.5 times | 1.6 ± 0.3 | 7.1 ± 1.5 | 3.3 ± 0.4 | 1.5 ± 0.3 | 1.0 ± 0.1 | 6.8 ± 1.3 | 23.1 ± 6.7 | 788 nm | 790 nm | 758 nm | 762 nm
